Results taken from PubChem BioAssay (NCI).
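GI50 is the concentration that inhibits growth by half. TGI: total growth inhibition.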

Assays:
Experiment in all cases: NCI tumour cell line growth inhibition, 384-well format
[1] = tested on: 786-0 renal
[2] = tested on: A498 renal
[3] = tested on: A549 NSCLC
[4] = tested on: ACHN renal
[5] = tested on: BT-549 breast
[6] = tested on: CAKI-1 renal
[7] = tested on: CCRF-CEM leukemia
[8] = tested on: DU-145 prostate
[9] = tested on: HCT-116 colon
[10] = tested on: HCT-15 colon
[11] = tested on: HL-60(TB) leukemia
[12] = tested on: HOP-62 NSCLC
[13] = tested on: HOP-92 NSCLC
[14] = tested on: HS 578T breast
[15] = tested on: K-562 leukemia
[16] = tested on: LOX IMVI melanoma
[17] = tested on: M14 melanoma
[18] = tested on: MALME-3M melanoma
[19] = tested on: MCF7 breast
[20] = tested on: MDA-MB-231 breast
[21] = tested on: MDA-MB-435 melanoma
[22] = tested on: MDA-MB-468 breast
[23] = tested on: MOLT-4 leukemia
[24] = tested on: NCI-H23 lung
[25] = tested on: NCI-H522 lung
[26] = tested on: NCI/ADR-RES ovarian
[27] = tested on: OVCAR-3 ovarian
[28] = tested on: OVCAR-5 ovarian
[29] = tested on: OVCAR-8 ovarian
[30] = tested on: PC-3 prostate
[31] = tested on: SF-268 CNS
[32] = tested on: SK-MEL-2 melanoma
[33] = tested on: SK-MEL-28 melanoma
[34] = tested on: SK-OV-3 ovarian
[35] = tested on: SN12C renal
[36] = tested on: SNB-19 CNS
[37] = tested on: T-47D breast
[38] = tested on: U251 glioblastoma
[39] = tested on: UACC-62 melanoma
[40] = tested on: UO-31 renal
[41] = tested on: COLO 205 colon
[42] = tested on: EKVX NSCLC
[43] = tested on: HCC-2998 colon
[44] = tested on: NCI-H322M lung
[45] = tested on: NCI-H460 NSCLC
[46] = tested on: OVCAR-4 ovarian
[47] = tested on: SF-295 CNS
[48] = tested on: SF-539 CNS
[49] = tested on: SK-MEL-5 melanoma
[50] = tested on: TK-10 renal
[51] = tested on: UACC-257 melanoma

Structure (SMILES): Nc1nc(F)nc2c1ncn2C1OC(COP(=O)(O)O)C(O)C1O (centres undefined)
- GI50 [1]: 33 µM
- GI50 [2]: 31.2 µM
- GI50 [3]: 36.1 µM
- GI50 [4]: 32.9 µM
- GI50 [5]: 20 µM
- TGI [5]: 96.9 µM
- GI50 [6]: 25.3 µM
- GI50 [7]: 1.91 µM
- TGI [7]: 3.57 µM
- GI50 [8]: 21.6 µM
- TGI [8]: 93.8 µM
- GI50 [9]: 19.3 µM
- GI50 [10]: 39.9 µM
- GI50 [11]: 3.71 µM
- TGI [11]: 11 µM
- GI50 [12]: 5.8 µM
- TGI [12]: 21.2 µM
- GI50 [13]: 30.9 µM
- GI50 [14]: 55 µM
- GI50 [15]: 58.4 µM
- GI50 [16]: 45.4 µM
- GI50 [17]: 8.5 µM
- TGI [17]: 37.3 µM
- GI50 [18]: 25.1 µM
- GI50 [19]: 41.2 µM
- GI50 [20]: 32.9 µM
- GI50 [21]: 49.9 µM
- GI50 [22]: 71 µM
- GI50 [23]: 1.53 µM
- TGI [23]: 2.89 µM
- GI50 [24]: 11.7 µM
- TGI [24]: 32.9 µM
- GI50 [25]: 59.7 µM
- GI50 [26]: 4.74 µM
- TGI [26]: 41.2 µM
- GI50 [27]: 58.4 µM
- GI50 [28]: 57.5 µM
- GI50 [29]: 3.16 µM
- TGI [29]: 15.8 µM
- GI50 [30]: 37.6 µM
- GI50 [31]: 48.3 µM
- GI50 [32]: 51.7 µM
- TGI [32]: 84.5 µM
- GI50 [33]: 7.83 µM
- GI50 [34]: 24 µM
- GI50 [35]: 4.96 µM
- TGI [35]: 21.8 µM
- GI50 [36]: 20.6 µM
- GI50 [37]: 83 µM
- GI50 [38]: 90.2 µM
- GI50 [39]: 23.2 µM
- TGI [39]: 54.1 µM
- GI50 [40]: 30.6 µM

Structure (SMILES): CCOC(=O)c1ccc2[nH]c(Cc3[nH]c4ccc(C(=O)OCC)cc4c3C)c(C)c2c1
- GI50 [1]: 1.4 µM
- TGI [1]: 11.7 µM
- GI50 [2]: 2.36 µM
- TGI [2]: 10.6 µM
- GI50 [3]: 1.92 µM
- TGI [3]: 14.6 µM
- GI50 [4]: 1.8 µM
- TGI [4]: 8.24 µM
- GI50 [7]: 0.763 µM
- TGI [7]: 11.7 µM
- GI50 [41]: 0.344 µM
- TGI [41]: 14.5 µM
- GI50 [8]: 3.05 µM
- TGI [8]: 17 µM
- GI50 [42]: 4.62 µM
- TGI [42]: 18.2 µM
- GI50 [43]: 1.56 µM
- TGI [43]: 16.1 µM
- GI50 [9]: 0.472 µM
- TGI [9]: 2.41 µM
- GI50 [10]: 0.0286 µM
- TGI [10]: 6.55 µM
- GI50 [13]: 2.07 µM
- TGI [13]: 7.98 µM
- GI50 [15]: 0.356 µM
- TGI [15]: 12.3 µM
- GI50 [16]: 0.481 µM
- TGI [16]: 1.91 µM
- GI50 [18]: 1.63 µM
- TGI [18]: 6.41 µM
- GI50 [20]: 0.601 µM
- TGI [20]: 12.1 µM
- GI50 [21]: 4.68 µM
- TGI [21]: 61.4 µM
- GI50 [22]: 1.08 µM
- TGI [22]: 7.27 µM
- GI50 [23]: 0.0514 µM
- TGI [23]: 0.274 µM
- GI50 [44]: 4.26 µM
- TGI [44]: 19.7 µM
- GI50 [45]: 0.281 µM
- TGI [45]: 2.07 µM
- GI50 [25]: 1.69 µM
- TGI [25]: 12.1 µM
- GI50 [27]: 2.97 µM
- TGI [27]: 12.7 µM
- GI50 [46]: 3.11 µM
- TGI [46]: 14.3 µM
- GI50 [28]: 2.73 µM
- TGI [28]: 32.1 µM
- GI50 [29]: 1.56 µM
- TGI [29]: 11.1 µM
- GI50 [47]: 0.464 µM
- TGI [47]: 4.59 µM
- GI50 [48]: 1.3 µM
- TGI [48]: 7.85 µM
- GI50 [33]: 3.4 µM
- TGI [33]: 23.1 µM
- GI50 [49]: 1.23 µM
- TGI [49]: 2.8 µM
- GI50 [34]: 4.64 µM
- TGI [34]: 18.6 µM
- GI50 [35]: 3.08 µM
- TGI [35]: 12.6 µM
- GI50 [36]: 5.4 µM
- TGI [36]: 21.3 µM
- GI50 [37]: 2.88 µM
- TGI [37]: 9.2 µM
- GI50 [50]: 0.498 µM
- TGI [50]: 11.4 µM
- GI50 [38]: 1.13 µM
- TGI [38]: 6.01 µM
- GI50 [51]: 9.7 µM
- TGI [51]: 25.3 µM
- GI50 [40]: 3.36 µM
- TGI [40]: 18.9 µM
